Data: patent US7820834B2, “Triptolide 5,6-derivatives as immunomodulators and anticancer agents” (Pharmagenesis, Inc., priority 2004, dated 2010)

Key:
Assay type in all cases: cell-based
[1] = system: Jurkat human T lymphoma cell line; assay: Annexin V Apoptosis Assay; details: 24 h, dose-dependent, FIG. 1
Description: Test samples were diluted to 1 mM in complete tissue culture medium (RPMI 1640 medium plus 5% heat-inactivated fetal calf serum, 1% HEPES, 1% pen/strep, 1% glutamine). Aliquots were placed in microculture plates and serial dilutions were prepared so that the final concentration would encompass the range of 2 to 6,000 nM with half-log increments. Cells from an exponentially expanding culture of the Jurkat human T lymphoma cell line (#TIB-152 obtained from American Type Culture Collection, Manassas, Va.) were harvested, washed once by centrifugation, re-suspended in complete tissue culture medium, and further diluted to a concentration of 1×10^6 cells/ml. A volume of 100 μl of the cells (1×10^5 cells) was added to wells containing 100 μl of the diluted compounds, and the plates were incubated at 37° C. in a 5% CO2 incubator.
After 24 hours, the plates were centrifuged to pellet the cells, and the cells were washed twice with 2% heat-inactivated fetal calf serum in PBS. […] The contents of the wells were individually transferred into test tubes, and apoptosis was analyzed using a FACSCalibur flow cytometer (BD Immunocytometry Systems, San Jose, Calif.). Cells positive for Annexin V binding were considered to be apoptotic, and the data were calculated as percent apoptotic cells. […]

[2] = system: IL-2 production in Jurkat cells; assay: IL-2 Inhibition Assay; details: without previous incubation in human serum, FIG. 4
Description: Test compounds were diluted to 1 mM in complete tissue culture medium. Aliquots were placed in microculture plates coated with anti-CD3 antibody (used to stimulate the production of IL-2 by Jurkat cells), and serial dilutions were prepared so that the final concentration would encompass the range of 0.001 to 10,000 nM in log increments.
Invention compound 14-acetyl-5,6-didehydrotriptolide (designated PG746) was tested with and without a previous 16-hr incubation in human serum. Such incubation is expected to substantially convert the 14-acetyl group of PG746 to a 14-hydroxy group.
Cells from an exponentially expanding culture of Jurkat human T cell line (#TIB-152 obtained from American Type Culture Collection, Manassas, Va.) were harvested, washed once by centrifugation, re-suspended in complete tissue culture medium, and diluted to a concentration of 10^7 cells/ml. A volume of 50 μl of Jurkat cells was added to wells containing 100 μl of the diluted compounds, and the cells were stimulated with 50 ng/ml PMA and […] PHA. The plates were incubated at 37° C. in a 5% CO2 incubator. […] The stored supernatants were analyzed for human IL-2 concentration using the Luminex 100 (Luminex Corporation, Austin, Tex.), Luminex microspheres coupled with anti-IL-2 capture antibody, and fluorochrome-coupled anti-IL-2 detection antibody. The data were expressed as pg/ml of IL-2. […]

[3] = system: human T cell lymphoma (Jurkat) cells; assay: Cytotoxicity (MTT) Assay; details: FIG. 2
Description: Test compounds were dissolved in DMSO at a concentration of 20 mM. Further dilutions were done in RPMI1640 medium (GIBCO, Rockville, Md.) supplemented with 10% Fetal Calf Serum (HyClone Laboratories, Logan, Utah). Invention compound 14-acetyl-5,6-didehydrotriptolide (designated PG746) was tested with and without a previous 16-hr incubation in human serum. Such incubation is expected to substantially convert the 14-acetyl group of PG746 to a 14-hydroxy group.
Cytotoxicity of the compounds was determined in a standard MTT assay using Cell Proliferation Kit I (#1 465 007, Roche Diagnostics, Mannheim, Germany). Accordingly, human T cell lymphoma (Jurkat) cells (4×10^5 per well) were cultured for 24 h, in 96-well tissue culture plates, in the presence of serial three-fold dilutions of test compounds or medium containing the same concentration of DMSO as in the test samples at each dilution point. The cultures were then supplemented with 10 μl/well MTT reagent for 4 h and then with 0.1 ml/well solubilizing reagent for an additional 16 h. Optical density at 570 nm was measured on a ThermoScan microplate reader (Molecular Devices, Menlo Park, Calif.).
The data is presented as OD570 values versus concentration of the compounds. The results for invention compound 14-acetyl-5,6-didehydrotriptolide (designated PG746) and triptolide (designated PG490) are given in FIG. 2.

CC(C)[C@]12O[C@H]1[C@@H]1O[C@]13[C@]1(O[C@H]1C[C@@]1(O)C4=C(CC[C@]31C)C(=O)OC4)[C@@H]2O [PG701, 5-α-hydroxytriptolide]
induction of apoptosis (Annexin V positive cells) [1]: induced apoptosis in Jurkat cells

CC(=O)O[C@@H]1[C@@]2(C(C)C)O[C@H]2[C@@H]2O[C@]23[C@]12O[C@H]2C=C1C2=C(CC[C@@]13C)C(=O)OC2 [PG746, 14-acetyl-5,6-didehydrotriptolide]
inhibition of IL-2 production, activity relative to the medium control [2]: no significant activity relative to the medium control
concentrations at which the compound was clearly cytotoxic to Jurkat cells (MTT) ([3]; after incubation for 16 hours with human serum): ≥ 1000 nM
cytotoxicity (MTT), activity relative to the medium control ([3]; in assay medium, without previous incubation in human serum): no significant activity relative to the medium control
